# Experimental data: patent US12038432B2, “Organoids related to immunotherapy and methods of preparing and using the same” (Wake Forest University Health Sciences, priority 2018, dated 2024)
# “Also recorded” adds a separate entry of the source.
# Tests used:
# [1] = test system: PTOs derived from a melanoma patient (Non-Responder); experiment: LIVE/DEAD imaging of tumor organoids derived from a non-responder melanoma patient; type: cell-based, human; details: FIG. 1C
# Description: (§1) Drug screen output metrics: Drugs will be administered for 48 hours, after which efficacy will be determined as follows; specifically, viability of cells will be assessed by (LIVE/DEAD), number of viable cells alone, number of viable cells versus dead cells, mitochondrial metabolism (MTS), LDH quantification (positive in tumor cells), and IHC (colocalization of fluorescently labeled immune cells with apoptotic, proliferative, and tumor cell markers).
# [2] = test system: 3D patient-specific mixed melanoma/node organoids; experiment: Personalized immunotherapy screening on mixed melanoma/node organoids (live/dead staining and metabolism assays); type: cell-based, human; details: fourth patient's mixed melanoma/node organoids; 72 hours
# Source text: Methods: Surgically obtained matched melanoma and lymph node biospecimens from the same patient were transferred to the laboratory, washed with saline, antibiotic, and red blood cell lysis buffer. Biospecimens were dissociated, and incorporated into an ECM-based hydrogel system and biofabricated into 3D patient-specific mixed melanoma/node organoids. Cells were not sorted for tumor, as to preserve tumor heterogeneity, including stroma and immune cell components. […] Quantification of live/dead staining and metabolism assays, recorded relative drug efficacy in killing melanoma cells for a particular patient. Light microscopy, IHC and next generation sequencing (NGS) were used to compare tumor melanoma cells with organoid melanoma cells.
# melanoma tumor organoid = experiment: Drug screen, cell viability of melanoma tumor organoid with or without lymph node cells (FIG. 5); type: cell-based, human; details: decrease observed only when the organoid included both tumor cells and lymph node cells
# Description: Organoid-device integration: HA and gelatin/collagen components are mixed with cells, as well as a crosslinker and photoinitiator for photopolymerization in situ. Cells are added to the gel precursor preferably at a density of 20 million cells/mL or higher, after which the cell-gel mixture introduced to the microfluidic chambers sequentially and patterning is accomplished using a positive-tone photomask to define shape and location of constructs (FIG. 3B). For the proposed studies, each device will contain series of 2 chamber circuits in which one chamber will be formed a tumor organoid and in the other will be formed a lymph node organoid. Alternatively, both organoids can exist separately, but in the same chamber (FIG. 2). In another form factor, tumor cells and immune cells can be photopatterned into the device as adjacent regions, in which for the immune cells to successfully target the tumor cells, they are forced to recognize tumor cell antigens, activate, and migrate to the tumor region. (FIGS. 4A-4C). […]
# Drug screen output metrics: Drug efficacy will be determined by: viability of cells (LIVE/DEAD), number of viable cells alone, number of viable cells versus dead cells, mitochondrial metabolism (MTS), LDH quantification (positive in tumor cells), and IHC (Annexin V vs. KI67-apoptotic vs. proliferative markers).
# [3] = test system: low-grade appendiceal tumor-node organoids; experiment: LIVE/DEAD imaging of appendiceal tumor organoids with and without node cells; type: cell-based, human; details: FIG. 1B; for LIVE/DEAD imaging, drug effectiveness: appendiceal tumor organoids with and without node cells; for cell death (LIVE/DEAD staining): low-grade appendiceal tumor-node organoids
# Description: as §1
# melanoma = experiment: Clinical response of melanoma patients to treatment; type: in vivo, human; details: stage III and IV melanoma patients of Example 7
# PTOs = experiment: Exposure of patient tumor organoids (PTOs) to immune checkpoint inhibitors, tolerance; type: cell-based; details: ~100 nM concentrations; unless immune cells are activated
# Source text: Potential immune checkpoint inhibitor treatment. […] Concentrations of these two widely-used PD-1 inhibitors and one widely-used CTLA-4 inhibitor will be derived from clinical treatment guidelines and scaled to the volume of the PTO.
# [4] = test system: colorectal tumor-node organoids; experiment: Mitochondrial metabolism of colorectal patient tumor organoids with or without matched lymph node immune cells; type: cell-based, human; details: integrated colorectal tumor-node organoids; seen only when immune cells are present; FIG. 1A
# Description: as §1, with “markers). […] This was not expected given the BRAF wild status of the patient. […] The alternative therapy was identified by PTO screen more than 4 weeks prior to genomic sequencing that verified a MEK mutation, thus qualifying the patient for trametinib.” for “markers).”
Substance,organoid response (LIVE/DEAD staining) [1],organoid response (LIVE/DEAD staining) ([1]; listed as dabrafenib and trametinib),melanoma killing [2] [%],"organoid viability, measured by overall metabolic activity (melanoma tumor organoid)","LIVE/DEAD imaging, drug effectiveness [3]",cell death (LIVE/DEAD staining) [3],patient clinical response (melanoma),effect on the PTOs (PTOs),mitochondrial metabolism [4]
dabrafenib and trametinib [dabrafenic/trametinib],increased DEAD staining,did respond,,,,,,,
nivolumab,,,50,significant decrease,effective only when immune cell (lymph) population was incorporated,increases in cell death,clinically progressed,no negative effect,an increase in mitochondrial metabolism; also recorded: Increased metabolism
pembrolizumab,did not respond,,,significant decrease,effective only when immune cell (lymph) population was incorporated,increases in cell death,,no negative effect,
ipilimumab [ipilumimab],did not respond,,,,,,,,
